{"source": "patent US12551462B2", "about": "“Anti-aging composition with rutin, apigenin, epigallocatechin gallate, lipoic acid and the NAD precursor, niacinamide” (NUCHIDO LIMITED, priority 2018, dated 2026)", "origin": "cited, not measured here", "test_system": "NAD concentration", "conditions": "Trammell et al. 2016", "data": [{"smiles": "NC(=O)c1ccc[n+]([C@@H]2O[C@H](CO)[C@@H](O)[C@H]2O)c1", "note": "[Niagen, nicotinamide riboside]", "values": [{"measurement": "Enhancement of NAD (as % baseline)", "result": 270, "unit": "%"}]}]}
